Activity calls are given as the source filed them. No cut-off for these calls is given here.
Assays:
BHK [1] = test: Inhibition of dog NCX1 expressed in BHK cells assessed as decrease in Na+ free solution induced calcium level at 0.01 to 10 uM by Fluo-4 AM dye based assay; type: cell-based; conditions: Canis lupus familiaris, dose 0.01-10 µM
Cortical neurone [2] = test: Neuroprotective activity against rat primary cortical neurons assessed as reduction in cell injury under hypoxic condition by MTT assay; type: functional, cell-based; conditions: dose 10.0 µM
BHK [3] = test: Inhibition of dog NCX1 expressed in BHK cells assessed as decrease in Na+ free solution induced calcium level at 10 uM by Fluo-2 AM dye based assay; type: cell-based; conditions: Canis lupus familiaris
Cortical neurone [4] = test: Neuroprotective activity against rat primary cortical neurons assessed as reduction in cell injury under RX and chemical hypoxia condition by MTT assay; type: functional, cell-based; conditions: dose 10.0 µM
Cortical neurone [5] = test: Neuroprotective activity against rat primary cortical neurons assessed as reduction in cell injury at 10 uM preincubated with compound followed by compound washout and OGD and RX exposure by MTT assay; type: functional, cell-based
BHK [6] = test: Activation of dog NCX1 expressed in BHK cells assessed as increase in Na+ free solution induced calcium level at 10 uM by fluo-2 AM dye based assay; type: cell-based; conditions: Canis lupus familiaris, filed as activator
[7] = Inhibition of dog NCX1 expressed in BHK cells assessed as decrease in Na+ free solution induced calcium level by patch-clamp electrophysiology assay; type: cell-based; conditions: Canis lupus familiaris
BHK [8] = test: Activation of dog NCX1 expressed in BHK cells assessed as increase in Na+ free solution induced calcium level at 0.1 to 10 uM by fluo-4 AM dye based assay; type: cell-based; conditions: Canis lupus familiaris, filed as activator, dose 0.1-10 µM
BHK [9] = test: Activation of dog NCX3 expressed in BHK cells assessed as forward NCX current at 10 uM at -120 mV holding potential by whole-cell patch clamp electrophysiology method; type: cell-based; conditions: Canis lupus familiaris, filed as activator
BHK [10] = test: Activation of dog NCX1 expressed in BHK cells assessed as forward NCX current at 10 uM at -120 mV holding potential by whole-cell patch clamp electrophysiology method; type: cell-based; conditions: Canis lupus familiaris, filed as activator
BHK [11] = test: Activation of dog NCX3 expressed in BHK cells assessed as increase in Na+ free solution induced calcium level at 10 uM by fluo-2 AM dye based assay; type: cell-based; conditions: Canis lupus familiaris, filed as activator
BHK [12] = test: Activation of dog NCX3 expressed in BHK cells assessed as reverse NCX current at 10 uM at + 60 mV holding potential by whole-cell patch clamp electrophysiology method; type: cell-based; conditions: Canis lupus familiaris, filed as activator
BHK [13] = test: Activation of dog NCX3 expressed in BHK cells assessed as increase in Na+ free solution induced calcium level at 0.1 to 10 uM by fluo-4 AM dye based assay; type: cell-based; conditions: Canis lupus familiaris, filed as activator, dose 0.1-10 µM
BHK [14] = test: Activation of dog NCX1 expressed in BHK cells assessed as reverese NCX current at 10 uM at +60 mV holding potential by whole-cell patch clamp electrophysiology method; type: cell-based; conditions: Canis lupus familiaris, filed as activator

Structure (SMILES)	inhibition (BHK [1])	Activity (Cortical neurone [2])	inhibition (BHK [3])	Activity (Cortical neurone [4])	Activity (Cortical neurone [5])	Activity (BHK [6])	IC50 [7] [µM]	Activity (BHK [8])	Activity (BHK [9])	Activity (BHK [10])	Activity (BHK [11])	Activity (BHK [12])	Activity (BHK [13])	Activity (BHK [14])
O=C1CN=C(c2ccccc2)c2cc([N+](=O)[O-])ccc2N1CCN1CCCC1	Active	inactive	Active	–	–	–	–	–	–	–	–	–	–	–
O=C1CN=C(c2ccccc2Cl)c2cc([N+](=O)[O-])ccc2N1CN1CCCC1	–	Dose-Dependent Effect	–	Dose-Dependent Effect	Active	Active	10	Active	–	–	–	–	–	–
CC1CCCCN1C(=O)CN1C(=O)CN=C(c2ccccc2)c2cc([N+](=O)[O-])ccc21 (stereo not drawn)	–	inactive	–	–	–	Active	–	Active	Active	Active	Active	Active	Active	Active

From ChEMBL document CHEMBL5036354, “New Insights into the Structure-Activity Relationship and Neuroprotective Profile of Benzodiazepinone Derivatives of Neurounina-1 as Modulators of the Na+/Ca2+ Exchanger Isoforms” (J Med Chem, 2021)
